11 compounds from US20180002319A1, “MACROCYCLIC PICOLINAMIDE COMPOUNDS WITH FUNGICIDAL ACTIVITY” (DOW AGROSCIENCES LLC, priority 2014, published 2018) can be followed below.

Format in all cases: in vivo
One test concerns Alternaria solani. As to the kind of experiment: Tomato Early Blight (ALTESO) fungicidal activity. The note with it: 24 h, 1DP (1 Day Protectant), read-out: ALTESO Disease Control. Here is the method: Technical grades of materials were dissolved in acetone, which were then mixed with nine volumes of H2O containing 110 ppm Triton X-100. The fungicide solutions were applied onto wheat seedlings using an automated booth sprayer to run-off. All sprayed plants were allowed to air dry prior to further handling. All fungicides were evaluated using the aforementioned method for their activity vs. all target diseases, unless stated otherwise. Wheat leaf blotch and brown rust activity were also evaluated using track spray applications, in which case the fungicides were formulated as EC formulations, containing 0.1% Trycol 5941 in the spray solutions. Wheat plants (variety Yuma) were grown from seed in a greenhouse in 50% mineral soil/50% soil-less Metro mix until the first leaf was fully emerged, with 7-10 seedlings per pot. These plants were inoculated with an aqueous spore suspension of Zymoseptoria tritici either prior to or after fungicide treatments. After inoculation the plants were kept in 100% relative humidity (one day in a dark dew chamber followed by two to three days in a lighted dew chamber at 20° C.) to permit spores to germinate and infect the leaf. The plants were then transferred to a greenhouse set at 20° C. for disease to develop. When disease symptoms were fully expressed on the 1st leaves of untreated plants, infection levels were assessed on a scale of 0 to 100 percent disease severity. Percent disease control was calculated using the ratio of disease severity on treated plants relative to untreated plants. Example M: Evaluation of Fungicidal Activity: Tomato Early Blight (Alternaria solani; Bayer Code […]) Tomato plants (variety Outdoor Girl) were propagated in soil-less Metro mix, with each pot having one plant, and used when 12 to 14 days old. Test plants were inoculated with an aqueous spore suspension of Alternaria solani 24 hr after fungicide treatments. After inoculation the plants were kept in 100% relative humidity (one day in a dark dew chamber followed by two to three days in a lighted dew chamber at 20° C.) to permit spores to germinate and infect the leaf. The plants were then transferred to a growth room at 22° C. for disease to develop. Fungicide formulation, application and disease assessment on the sprayed leaves followed the procedures as described in the Example A.

Test [1] relates to Glomerella lagenarium; Anamorph: Colletotrichum lagenarium. Kind of test: Cucumber Anthracnose (COLLLA) fungicidal activity. The note with it: Colletotrichum orbiculare, 24 h, 1DP (1 Day Protectant), read-out: COLLLA Disease Control. On the procedure:
Technical grades of materials were dissolved in acetone, which were then mixed with nine volumes of H2O containing 110 ppm Triton X-100. The fungicide solutions were applied onto wheat seedlings using an automated booth sprayer to run-off. All sprayed plants were allowed to air dry prior to further handling. All fungicides were evaluated using the aforementioned method for their activity vs. all target diseases, unless stated otherwise. Wheat leaf blotch and brown rust activity were also evaluated using track spray applications, in which case the fungicides were formulated as EC formulations, containing 0.1% Trycol 5941 in the spray solutions. Wheat plants (variety Yuma) were grown from seed in a greenhouse in 50% mineral soil/50% soil-less Metro mix until the first leaf was fully emerged, with 7-10 seedlings per pot. These plants were inoculated with an aqueous spore suspension of Zymoseptoria tritici either prior to or after fungicide treatments. After inoculation the plants were kept in 100% relative humidity (one day in a dark dew chamber followed by two to three days in a lighted dew chamber at 20° C.) to permit spores to germinate and infect the leaf. The plants were then transferred to a greenhouse set at 20° C. for disease to develop. When disease symptoms were fully expressed on the 1st leaves of untreated plants, infection levels were assessed on a scale of 0 to 100 percent disease severity. Percent disease control was calculated using the ratio of disease severity on treated plants relative to untreated plants. Example N: Evaluation of Fungicidal Activity: Cucumber Anthracnose (Glomerella lagenarium; Anamorph: Colletotrichum lagenarium; Bayer Code COLLLA) Cucumber seedlings (variety Bush Pickle) were propagated in soil-less Metro mix, with each pot having one plant, and used in the test when 12 to 14 days old. Test plants were inoculated with an aqueous spore suspension of Colletotrichum lagenarium 24 hr after fungicide treatments. After inoculation the plants were kept in a dew room at 22° C. with 100% relative humidity for 48 hr to permit spores to germinate and infect the leaf. The plants were then transferred to a growth room set at 22° C. for disease to develop. Fungicide formulation, application and disease assessment on the sprayed leaves followed the procedures as described in the Example A.

For test [2], the system named is Magnaporthe grisea; Anamorph: Pyricularia oryzae. Kind of test: whole plant or invertebrate. The settings on record: 24 h, read-out: PYRIOR Disease Control.
Another test deals with Cercospora beticola. Kind of test: Leaf Spot of Sugar Beets (CERCBE) fungicidal activity. The settings on record: 24 h, 1DP (1 Day Protectant), sugar beet, read-out: CERCBE Disease Control. Here is the method: Technical grades of materials were dissolved in acetone, which were then mixed with nine volumes of H2O containing 110 ppm Triton X-100. The fungicide solutions were applied onto wheat seedlings using an automated booth sprayer to run-off. All sprayed plants were allowed to air dry prior to further handling. All fungicides were evaluated using the aforementioned method for their activity vs. all target diseases, unless stated otherwise. Wheat leaf blotch and brown rust activity were also evaluated using track spray applications, in which case the fungicides were formulated as EC formulations, containing 0.1% Trycol 5941 in the spray solutions. Wheat plants (variety Yuma) were grown from seed in a greenhouse in 50% mineral soil/50% soil-less Metro mix until the first leaf was fully emerged, with 7-10 seedlings per pot. These plants were inoculated with an aqueous spore suspension of Zymoseptoria tritici either prior to or after fungicide treatments. After inoculation the plants were kept in 100% relative humidity (one day in a dark dew chamber followed by two to three days in a lighted dew chamber at 20° C.) to permit spores to germinate and infect the leaf. The plants were then transferred to a greenhouse set at 20° C. for disease to develop. When disease symptoms were fully expressed on the 1st leaves of untreated plants, infection levels were assessed on a scale of 0 to 100 percent disease severity. Percent disease control was calculated using the ratio of disease severity on treated plants relative to untreated plants. Example G: Evaluation of Fungicidal Activity: Leaf Spot of Sugar Beets (Cercospora beticola; Bayer Code CERCBE) Sugar beet plants (variety HH88) were grown in soil-less Metro mix and trimmed regularly to maintain a uniform plant size prior to test. Plants were inoculated with a spore suspension 24 hr after fungicide treatments. Inoculated plants were kept in a dew chamber at 22° C. for 48 hr then incubated in a greenhouse set at 24° C. under a clear plastic hood with bottom ventilation until disease symptoms were fully expressed. Fungicide formulation, application and disease assessment on the sprayed leaves followed the procedures as described in the Example A.

The structures appear in SMILES notation. Where only a bound is given, the exact number is not on record here.

Regarding `CCCCO[C@H]1CCOC[C@H](NC(=O)c2nccc(OC)c2OCOC(C)=O)C(=O)O[C@@H](C)[C@@H]1OCc1ccccc1` [Compound 2], the pest or weed control at 100 ppm in the test with Alternaria solani was under 80%; in test [1], over 80%; in test [2], over 80%; in the test with Cercospora beticola, over 80%.
`CCCCO[C@H]1CCOC[C@H](NC(=O)c2nccc(OC)c2OCOC(C)=O)C(=O)O[C@@H](C)[C@@H]1OC(=O)C(C)C` [Compound 3]: the pest or weed control at 100 ppm with Alternaria solani is over 80%; in test [1], under 80%; in test [2], over 80%; in the test on Cercospora beticola it was under 80%.
Consider `CCCCO[C@H]1CCOC[C@H](NC(=O)c2nccc(OC)c2OCOC(C)=O)C(=O)O[C@@H](C)[C@@H]1OC(=O)c1ccccc1` [Compound 4], for which the pest or weed control at 100 ppm was over 80% in the test with Alternaria solani, over 80% in test [1], over 80% in test [2] and under 80% in the test on Cercospora beticola.
Turning to `CCCCO[C@H]1CCOC[C@H](NC(=O)c2nccc(OC)c2OCOC(C)=O)C(=O)O[C@@H](C)[C@@H]1OC(=O)C1CC1` [Compound 5], the pest or weed control at 100 ppm (with Alternaria solani; in test [1]; in test [2]; with Cercospora beticola) was under 80% throughout.
With `COc1ccnc(C(=O)N[C@H]2COCC[C@@H](OCC(C)C)[C@@H](OCC(C)C)[C@H](C)OC2=O)c1OCOC(C)=O` [Compound 6], the pest or weed control at 100 ppm in the test with Alternaria solani was under 80%; in test [1], over 80%; in test [2], over 80%; in the test with Cercospora beticola it was over 80%.
`CCCCCO[C@H]1[C@H](C)OC(=O)[C@@H](NC(=O)c2nccc(OC)c2OCOC(C)=O)CCCC[C@@H]1Oc1ccccc1` [Compound 17]: the pest or weed control at 100 ppm (with Alternaria solani; in test [2]; with Cercospora beticola) was over 80% throughout.
With `CCCO[C@H]1[C@H](C)OC(=O)[C@@H](NC(=O)c2nccc(OC)c2OCOC(C)=O)CCCC[C@@H]1Oc1ccccc1` [Compound 18], the pest or weed control at 100 ppm (in the test on Alternaria solani; in test [2]; in the test with Cercospora beticola) was over 80% in each case.
As for `COc1ccnc(C(=O)N[C@H]2CCCC[C@H](Oc3ccccc3)[C@@H](Oc3ccccc3)[C@H](C)OC2=O)c1OCOC(C)=O` [Compound 19], the pest or weed control at 100 ppm (in the test with Alternaria solani; in test [2]; with Cercospora beticola) was over 80% throughout.
On to `COc1ccnc(C(=O)N[C@H]2COCC[C@H](Cc3ccccc3)[C@@H](OCC(C)C)[C@H](C)OC2=O)c1OCOC(C)=O` [Compound 20], for which the pest or weed control at 100 ppm (with Alternaria solani; in test [1]; with Cercospora beticola) was over 80% throughout.
Take `COc1ccnc(C(=O)N[C@H]2COCC[C@H](Cc3ccccc3)[C@@H](OCC(C)C)[C@H](C)OC2=O)c1OC(C)=O` [Compound 21]: the results for the pest or weed control at 100 ppm (in the test with Alternaria solani; in test [1]; in the test with Cercospora beticola) were over 80%, over 80% and under 80%, respectively.
As to `COc1ccnc(C(=O)N[C@H]2CCOC[C@H](Oc3ccccc3)[C@@H](Oc3ccccc3)[C@H](C)OC2=O)c1OCOC(C)=O` [Compound 37], the pest or weed control at 100 ppm (in test [1]; in test [2]; in the test on Cercospora beticola) was over 80% in each case.
